Laboratory results published in patent US11596598B2, “Chlorogenic acid-containing composition for nasal administration” (SICHUAN JIUZHANG BIOLOGICAL SCIENCE AND TECHNOLOGY CO., LTD, priority 2019, dated 2023).

Tests used:
[1] = test system: telomerase; test: Telomerase detection in nasopharyngeal tissue of rats; assay type: in vivo, SD rats; conditions: rat nasopharyngeal tissue homogenate, Telomerase ELISA-PCR kit, 20th week
Description: SD rats were randomly divided into 8 groups, 5 rats for each group, and the groups included nasal administration groups: chlorogenic acid bulk drug group, the nasal powder group of example 1, the nasal powder group of example 5, the aerosol group of example 6, and the aerosol group of example 7; intraperitoneal injection group of chlorogenic acid, positive control drug group, and blank group. Amongst, for nasal administration, each test drug group received corresponding drugs at a dose of 20 mg/kg chlorogenic acid daily, once a day; intraperitoneal injection group of chlorogenic acid was administrated at a dose of 20 mg/kg chlorogenic acid daily, once a day; retinoic acid positive drug group was administered intragastrically at a dose of 90 mg/kg daily, once a day. Rats in each experimental group were given dinitrosopiperazine and phorbol ester to promote cancer. […] The rats were sacrificed at the 20th week, rhinitis tissues were dissected, histopathology was observed, and telomerase was detected.
Nasopharyngeal tissue homogenate was weighed and centrifuged, and then the supernatant was collected and processed according to Telomerase ELISA-PCR kit instruction (Shanghai Boehringer Mannheim Co.). After obtaining PCR reaction product, the telomerase activity was quantitatively detected, followed by concentration and electrophoresis on polyacrylamide gel, then staining with silver nitrate.

[2] = test system: nasopharyngeal carcinoma; test: Inhibitory effect on nasopharyngeal carcinoma in rats: nasopharyngeal tissue paraffin microscopy; assay type: in vivo, SD rats; conditions: nasal administration, 20 mg/kg chlorogenic acid once a day, 5 rats per group, dinitrosopiperazine/phorbol ester induced, 20th week
From the text: 1.1.3 Positive Control Drug: Retinoic Acid
SD rats, half male and half […], weighing 180-220 g.
SD rats were randomly divided into 8 groups, 5 rats for each group, and the groups included nasal administration groups: chlorogenic acid bulk drug group, the nasal powder group of example 1, the nasal powder group of example 5, the aerosol group of example 6, and the aerosol group of example 7; intraperitoneal injection group of chlorogenic acid, positive control drug group, and blank group. Amongst, for nasal administration, each test drug group received corresponding drugs at a dose of 20 mg/kg chlorogenic acid daily, once a day; intraperitoneal injection group of chlorogenic acid was administrated at a dose of 20 mg/kg chlorogenic acid daily, once a day; retinoic acid positive drug group was administered intragastrically at a dose of 90 mg/kg daily, once a day. Rats in each experimental group were given dinitrosopiperazine and phorbol ester to promote cancer. Dinitrosopiperazine was injected into the armpit at a dose of 40 mg/kg to induce carcinogenesis, twice a week, for a total of 15 weeks. After dinitrosopiperazine was injected for two weeks, phorbol diester was injected at a dose of 50 ng/rat, twice a week, for a total of 15 weeks. The rats were sacrificed at the 20th week, rhinitis tissues were dissected, histopathology was observed, and telomerase was detected.
Rat nasopharyngeal tissues were fixed with 10% formaldehyde, decalcified in Jenkin's solution, further fixed in neutral formalin, and embedded in paraffin to make serial sections, then stained with hematoxylin and eosin and observed under a microscope.

[3] = Bioavailability of nasal administration in beagle dogs (chlorogenic acid content in blood); assay type: in vivo; conditions: male, dog, serum, other: nasal administration, 4 mg/kg chlorogenic acid
Description: • Six male beagle dogs, weighing 10-13 kg.
Six beagle dogs were randomly divided into groups and cross-administered with one week interval.
After fasting for 12 h, test animals were given chlorogenic acid, nasal powder, and aerosol at a dose of 4 mg/kg chlorogenic acid by nasal administration, and one additional dog was injected intravenously with chlorogenic acid at 4 mg/kg. 3 h after administration, dogs were allowed to feed;
10 min, 30 min, 60 min, 90 min, 120 min, 150 min after administration of beagle dogs, 3 mL intravenous blood was collected, heparin was used to anticoagulate, and then 1 mL serum was separated by centrifugation, and stored in a refrigerator at −20° C.
To 100 μL serum, were added methanol-0.2% phosphoric acid (80:20) solution (100 μL), the solution of puerarin in methanol as internal standard (50 mg/mL, 100 μL), and 100 μL methanol. The resultant solution was vortexed for 3 min, allowed to stand, and centrifuged (12000 rpm) for 10 min. The supernatant was collected as the serum test solution.
(§1) Octadecylsilane-bonded silica gel column (150 mm×4.6 mm, 5 μm) and guard column were used; mobile phase A (methanol) and mobile phase B (0.2% phosphoric acid) were used to perform desorption according to a gradient elution procedure; the detection wavelength was 325 nm; the flow rate was 1 mL/min; the column temperature was 40° C.
20 μL of the serum test solution was accurately measured, and injected into the liquid chromatograph, to record the chromatogram. The internal standard method was used to calculate the content of chlorogenic acid in serum with accompanying standard curve.

[4] = test system: Rat C6 glioma cells; test: Inhibitory effect of nasal administration and intraperitoneal injection on glioma in rats; assay type: in vivo, SD rats; conditions: rat C6 brain glioma; for Tumor size: imaging on 21st day
Description: 1.1.3 Positive Control Drug: Temozolomide
40 SD rats, half male and half […], weighing 180-220 g.
Rat C6 glioma cells were incubated in 10% calf serum DMEM complete culture medium, subcultured in a monolayer culture method and allowed to grow to the required number of cells, and then subcultured once before inoculation. Cells in logarithmic growth phase are collected, digested with trypsin, centrifuged, and made to 1×10^4/10 μL cell suspension with Hanks solution, then stored in a refrigerator at 4° C. for inoculation.
Rats were anesthetized by intraperitoneal injection of 10% chloral hydrate, and the hair on the top of the rat's head was cut off and disinfected with iodine. The scalp was cut to expose the skull, and an electronic dental drill was used to open the cranium 1 mm behind the coronal suture and 3 mm to the right of the sagittal suture. 10 μL C6 cell suspension was injected, the bone hole was sealed with bone wax, and the incision was sutured. 5 days after tumor inoculation, the rats were examined by imaging, and tumorigenic rats were selected.
The tumorigenic rats were randomly divided into 8 groups, 5 rats for each group, and the groups included nasal administration groups: chlorogenic acid bulk drug group, the nasal powder group of example 1, the nasal powder group of example 5, the aerosol group of example 6, and the aerosol group of example 7; intraperitoneal injection group of chlorogenic acid, temozolomide positive control drug group, and blank group. For nasal administration, each test drug group received corresponding drugs at a dose of 20 mg/kg chlorogenic acid daily; intraperitoneal injection group of chlorogenic acid was administrated at a dose of 20 mg/kg chlorogenic acid daily; temozolomide positive control group was administered intragastrically at a dose of 25 mg/kg daily. Each test group started to be given the drug on the 6th day after tumor inoculation for 20 consecutive days, and on the 21st day each drug group and the blank group were imaged to check the tumor size.
SPSS software was used to perform t test, analysis of variance and multiple comparisons test.
The post-processing platform was used to measure the tumor volume on the 3DFSPGR sequence, and the tumor inhibition rate was calculated.

[5] = Blood-brain barrier permeability in rats after nasal administration (chlorogenic acid content in brain tissue); assay type: in vivo; conditions: SD, rat, other: nasal administration, 20 mg/kg chlorogenic acid
Description: 150 SD rats, half male and half […], weighing 180-220 g.
SD rats were randomly divided into 5 groups, 30 rats for each group, and each test drug was administrated nasally at a dose of 20 mg/kg chlorogenic acid. The tissue samples were collected at 10 min, 30 min, 60 min, 90 min, 120 min, and 150 min after administration.
After administration, each experimental group was intraperitoneally injected with 1% pentobarbital sodium (0.2 mL) for deep anesthesia according to the time point, and then a needle was inserted from the left ventricle. The right ventricle was cut, and physiological saline was injected with a syringe for cardiac perfusion until the liver and spleen turned gray, and the brain tissue was taken out.
The brain tissue was placed in a homogenizer, to which was added 0.9% sodium chloride injection according to brain tissue: normal saline=1:1 (w/v) and then homogenized. To 200 μL homogenate, were added 50 mg/mL puerarin internal standard solution (200 μL) and methanol (200 μL), and then the mixture was vortexed and centrifuged. The supernatant was collected as the brain tissue test solution.
as §1
20 μL of the brain tissue test solution was accurately measured, and injected into the liquid chromatograph, to record the chromatogram. The internal standard method was used to calculate the content of chlorogenic acid in […] with accompanying standard curve.

[6] = listed as chlorogenic acid raw material
[7] = 10 min after nasal administration
[8] = 30 min after nasal administration
[9] = 60 min after nasal administration
[10] = 90 min after nasal administration
[11] = 120 min after nasal administration
[12] = 150 min after nasal administration
[13] = nasal administration, 20 mg/kg chlorogenic acid daily for 20 days
[14] = intraperitoneal injection, 25 mg/kg daily for 20 days

CC1=C(/C=C/C(C)=C/C=C/C(C)=C/C(=O)O)C(C)(C)CCC1 [Retinoic acid]
telomerase activity ([1]; intragastric administration, 90 mg/kg once a day): 0.22±0.12

O=C(/C=C/c1ccc(O)c(O)c1)O[C@@H]1C[C@](O)(C(=O)O)C[C@@H](O)[C@H]1O [Chlorogenic acid bulk drug, Chlorogenic acid]
Dysplastic tissue (number of rats, nasopharyngeal tissue paraffin microscopy) [2]: 3 | Normal tissue (number of rats, nasopharyngeal tissue paraffin microscopy) [2]: 1 | Simple hyperplasia (number of rats, nasopharyngeal tissue paraffin microscopy) [2]: 1 | Dysplastic tissue (number of rats, nasopharyngeal tissue paraffin microscopy) [2, 6]: three | Simple hyperplasia (number of rats, nasopharyngeal tissue paraffin microscopy) [2, 6]: one | concentration at 10 min [3, 7]: 1020 ng/mL | concentration at 30 min [3, 8]: 5740 ng/mL | concentration at 60 min [3, 9]: 2200 ng/mL | concentration at 90 min [3, 10]: 980 ng/mL | concentration at 120 min [3, 11]: 520 ng/mL | concentration at 150 min [3, 12]: 220 ng/mL | telomerase activity ([1]; nasal administration, 20 mg/kg chlorogenic acid once a day): 0.56±0.17 | Tumor inhibition rate [4, 13]: 22.35% | Tumor size [4, 13]: 48.35 ± 4.83 mm3 | concentration at 10 min [5, 7]: 0 ng/g | concentration at 30 min [5, 8]: 320 ng/g | concentration at 60 min [5, 9]: 860 ng/g | concentration at 90 min [5, 10]: 650 ng/g | concentration at 120 min [5, 11]: 320 ng/g | concentration at 150 min [5, 12]: 130 ng/g

Cn1nnc2c(C(N)=O)ncn2c1=O [Temozolomide]
Tumor inhibition rate [4, 14]: 39.57% | Tumor size [4, 14]: 37.63 ± 3.21 mm3
